Results on three compounds are retold here after patent US10870647B2, “Imidazopyridine derivative, method for preparing same, and pharmaceutical composition containing same as active ingredient for preventing or treating cancer” (DAEGU-GYEONGBUK MEDICAL INNOVATION FOUNDATION, priority 2016, dated 2020).

What all share (assay): Kinase selectivity, scanMAX Kinase assay panel (DiscoverX), % control at 1 uM
What all share (assay type): binding

The target in test [1] is T1, scanMAX Kinase assay panel (Homo sapiens, UniProt Q8IVH8).
T1 construct: purchased DiscoverX
T1 sequence (Q8IVH8 1-894): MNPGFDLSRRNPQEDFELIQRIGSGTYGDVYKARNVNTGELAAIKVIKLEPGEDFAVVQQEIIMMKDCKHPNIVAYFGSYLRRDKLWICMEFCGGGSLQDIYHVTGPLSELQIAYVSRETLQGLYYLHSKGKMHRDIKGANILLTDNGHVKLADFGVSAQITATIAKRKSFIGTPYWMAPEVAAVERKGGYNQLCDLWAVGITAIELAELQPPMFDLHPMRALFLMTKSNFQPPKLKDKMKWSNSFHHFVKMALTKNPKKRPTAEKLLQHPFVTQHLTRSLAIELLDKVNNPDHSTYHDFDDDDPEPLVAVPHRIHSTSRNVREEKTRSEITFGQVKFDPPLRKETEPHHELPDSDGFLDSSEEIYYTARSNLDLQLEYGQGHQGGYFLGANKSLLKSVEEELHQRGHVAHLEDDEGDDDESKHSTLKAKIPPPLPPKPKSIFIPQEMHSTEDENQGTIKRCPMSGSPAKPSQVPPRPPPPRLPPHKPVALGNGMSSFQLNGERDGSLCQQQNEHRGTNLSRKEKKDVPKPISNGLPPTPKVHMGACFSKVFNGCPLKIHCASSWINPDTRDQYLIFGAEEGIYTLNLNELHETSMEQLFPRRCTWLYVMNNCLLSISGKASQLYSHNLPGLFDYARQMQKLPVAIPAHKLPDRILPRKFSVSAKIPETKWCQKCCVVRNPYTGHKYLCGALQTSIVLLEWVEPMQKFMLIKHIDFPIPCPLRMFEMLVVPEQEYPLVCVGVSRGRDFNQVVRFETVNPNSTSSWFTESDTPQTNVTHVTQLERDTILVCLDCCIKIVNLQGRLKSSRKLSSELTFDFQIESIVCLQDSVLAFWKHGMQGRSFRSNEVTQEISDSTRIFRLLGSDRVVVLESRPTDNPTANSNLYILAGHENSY
The following applies: MAP4K3; 1 uM; read-out: Percent Control (%). The method in brief: (§1)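 Compounds were tested at 1 uM in DMSO against each enzyme in the panel. Percent control was calculated as (compound − positive control)/(negative control − positive control) × 100, and a compound was scored active on a kinase when this value fell below 35.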

The target of test [2] is T2, scanMAX Kinase assay panel (Homo sapiens, UniProt O76039).
T2 construct: purchased DiscoverX
T2 sequence (O76039 1-960): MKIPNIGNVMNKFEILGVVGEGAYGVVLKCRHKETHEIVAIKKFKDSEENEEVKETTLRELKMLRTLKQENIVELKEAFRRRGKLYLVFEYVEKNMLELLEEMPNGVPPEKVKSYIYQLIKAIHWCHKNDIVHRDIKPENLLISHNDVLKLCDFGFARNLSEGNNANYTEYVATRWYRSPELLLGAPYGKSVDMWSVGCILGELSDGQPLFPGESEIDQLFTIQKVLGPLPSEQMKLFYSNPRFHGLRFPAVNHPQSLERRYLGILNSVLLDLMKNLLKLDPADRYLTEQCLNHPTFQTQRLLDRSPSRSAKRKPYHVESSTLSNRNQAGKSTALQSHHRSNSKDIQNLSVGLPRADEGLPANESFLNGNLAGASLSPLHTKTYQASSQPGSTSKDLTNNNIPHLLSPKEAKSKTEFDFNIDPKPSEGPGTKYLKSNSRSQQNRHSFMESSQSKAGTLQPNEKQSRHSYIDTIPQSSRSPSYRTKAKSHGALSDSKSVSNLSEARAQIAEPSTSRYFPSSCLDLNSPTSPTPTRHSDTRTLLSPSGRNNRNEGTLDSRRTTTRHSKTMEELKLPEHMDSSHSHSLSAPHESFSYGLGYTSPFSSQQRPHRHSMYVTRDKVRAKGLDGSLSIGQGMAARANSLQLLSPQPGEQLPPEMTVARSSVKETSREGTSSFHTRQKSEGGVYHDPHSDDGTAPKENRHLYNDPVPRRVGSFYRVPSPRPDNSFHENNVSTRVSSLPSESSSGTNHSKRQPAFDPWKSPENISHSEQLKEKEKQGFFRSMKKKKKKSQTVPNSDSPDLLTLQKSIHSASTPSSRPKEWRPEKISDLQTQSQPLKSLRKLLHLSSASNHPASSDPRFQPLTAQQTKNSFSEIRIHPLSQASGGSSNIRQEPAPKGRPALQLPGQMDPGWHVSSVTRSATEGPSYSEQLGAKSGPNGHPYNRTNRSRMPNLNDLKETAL
The conditions noted are these: CDKL5; 1 uM; read-out: Percent Control (%). The method in brief: as §1

Test [3] has as its target T3, scanMAX Kinase assay panel (Homo sapiens, UniProt P14616).
T3 construct: purchased DiscoverX
The conditions noted are these: INSRR; 1 uM; read-out: Percent Control (%). The method in brief: as §1

Test [4] concerns the target T4, scanMAX Kinase assay panel (Homo sapiens, UniProt Q9BVS4).
T4 construct: purchased DiscoverX
The conditions noted are these: RIOK2; 1 uM; read-out: Percent Control (%). The method in brief: as §1

Test [5] deals with T5, scanMAX Kinase assay panel (Homo sapiens, UniProt P49759).
T5 construct: purchased DiscoverX
The following applies: CLK1; 1 uM; read-out: Percent Control (%). The method in brief: as §1

T3 sequence (P14616 27-1297): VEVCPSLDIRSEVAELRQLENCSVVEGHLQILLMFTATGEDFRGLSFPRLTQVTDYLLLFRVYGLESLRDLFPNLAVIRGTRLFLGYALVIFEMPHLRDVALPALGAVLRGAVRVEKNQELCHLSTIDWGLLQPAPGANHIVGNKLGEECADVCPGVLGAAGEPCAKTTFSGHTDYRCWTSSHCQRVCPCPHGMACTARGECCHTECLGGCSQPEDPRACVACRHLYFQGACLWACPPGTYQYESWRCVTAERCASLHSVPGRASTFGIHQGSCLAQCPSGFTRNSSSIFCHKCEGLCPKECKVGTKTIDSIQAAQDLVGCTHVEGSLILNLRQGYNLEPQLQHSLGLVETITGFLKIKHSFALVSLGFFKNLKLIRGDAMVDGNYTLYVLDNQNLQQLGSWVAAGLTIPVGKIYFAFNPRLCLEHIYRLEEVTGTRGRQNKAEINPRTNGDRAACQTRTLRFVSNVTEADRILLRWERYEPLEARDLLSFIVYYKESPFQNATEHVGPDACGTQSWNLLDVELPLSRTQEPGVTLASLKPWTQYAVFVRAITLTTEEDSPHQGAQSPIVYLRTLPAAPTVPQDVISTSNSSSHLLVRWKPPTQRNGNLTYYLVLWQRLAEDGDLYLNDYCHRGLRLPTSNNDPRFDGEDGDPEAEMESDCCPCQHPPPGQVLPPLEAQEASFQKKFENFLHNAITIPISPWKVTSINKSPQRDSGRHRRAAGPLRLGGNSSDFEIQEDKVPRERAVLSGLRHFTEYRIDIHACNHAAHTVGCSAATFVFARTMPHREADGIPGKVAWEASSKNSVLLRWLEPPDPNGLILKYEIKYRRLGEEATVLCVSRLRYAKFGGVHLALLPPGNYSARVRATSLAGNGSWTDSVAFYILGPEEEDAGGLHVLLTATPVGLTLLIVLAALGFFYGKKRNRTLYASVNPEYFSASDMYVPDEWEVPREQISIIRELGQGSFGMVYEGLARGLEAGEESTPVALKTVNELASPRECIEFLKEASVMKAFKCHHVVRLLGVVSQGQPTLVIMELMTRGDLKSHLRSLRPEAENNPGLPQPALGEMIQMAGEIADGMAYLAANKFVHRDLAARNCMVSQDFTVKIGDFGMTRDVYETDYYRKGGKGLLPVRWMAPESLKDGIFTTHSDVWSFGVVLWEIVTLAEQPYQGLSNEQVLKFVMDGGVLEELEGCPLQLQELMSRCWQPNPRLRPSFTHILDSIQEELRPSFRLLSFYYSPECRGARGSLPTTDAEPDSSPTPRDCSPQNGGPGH
T5 sequence (P49759 whole entry): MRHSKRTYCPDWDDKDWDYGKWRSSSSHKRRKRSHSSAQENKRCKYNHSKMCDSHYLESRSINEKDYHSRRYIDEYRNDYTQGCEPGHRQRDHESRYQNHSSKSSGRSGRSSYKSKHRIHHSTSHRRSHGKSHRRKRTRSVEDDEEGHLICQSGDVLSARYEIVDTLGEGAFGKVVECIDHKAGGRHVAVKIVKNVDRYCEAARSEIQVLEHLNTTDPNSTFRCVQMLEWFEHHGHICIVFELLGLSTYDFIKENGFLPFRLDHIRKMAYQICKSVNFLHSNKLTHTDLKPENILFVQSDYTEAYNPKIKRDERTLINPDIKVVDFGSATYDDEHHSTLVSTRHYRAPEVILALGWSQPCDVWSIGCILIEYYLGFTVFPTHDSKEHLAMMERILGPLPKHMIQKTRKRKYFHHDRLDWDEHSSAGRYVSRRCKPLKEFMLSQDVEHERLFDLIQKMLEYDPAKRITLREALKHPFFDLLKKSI
T4 sequence (Q9BVS4 whole entry): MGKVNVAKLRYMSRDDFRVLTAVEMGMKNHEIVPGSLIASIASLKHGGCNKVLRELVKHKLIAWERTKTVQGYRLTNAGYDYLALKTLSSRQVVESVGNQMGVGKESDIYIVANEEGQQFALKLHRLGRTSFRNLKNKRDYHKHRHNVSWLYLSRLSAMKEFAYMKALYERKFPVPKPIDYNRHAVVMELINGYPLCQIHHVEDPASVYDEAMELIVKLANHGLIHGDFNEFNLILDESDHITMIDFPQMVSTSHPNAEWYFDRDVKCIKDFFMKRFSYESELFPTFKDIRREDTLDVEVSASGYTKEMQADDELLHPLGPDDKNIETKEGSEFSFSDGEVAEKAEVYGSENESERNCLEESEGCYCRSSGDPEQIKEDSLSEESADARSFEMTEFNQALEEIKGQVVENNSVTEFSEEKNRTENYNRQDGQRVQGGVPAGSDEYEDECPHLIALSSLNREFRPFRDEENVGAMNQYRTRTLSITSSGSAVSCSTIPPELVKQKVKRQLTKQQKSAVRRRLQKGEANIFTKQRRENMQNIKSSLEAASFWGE

Take `Cc1ccc(C(=O)Nc2ccc(CN3CCN(C)CC3)c(C(F)(F)F)c2)cc1C#Cc1cnc2c(Nc3cnn(C)c3)cccn12` [Example 1, 4-methyl-3-((8-((1-methyl-1H-pyrazol-4-yl)amino)imidazo[1,2-a]pyridin-3-yl)ethynyl)-N-(4-((4-methylpiperazin-1-yl)methyl)-3-(trifluoromethyl)phenyl)benzamide]: the remaining binding at 1 µM in test [1] was 25%; in test [2] it was 94%; in test [3], 47%; in test [4], 88%; in test [5], 25%.

On to `Cc1cn(-c2cc(NC(=O)c3ccc(C)c(C#Cc4cnc5c(Nc6cnn(C)c6)cccn45)c3)cc(C(F)(F)F)c2)cn1` [Example 12, 4-methyl-N-(3-(4-methyl-1H-imidazol-1-yl)-5-(trifluoromethyl)phenyl)-3-((8-((1-methyl-1H-pyrazol-4-yl)amino)imidazo[1,2-a]pyridin-3-yl)ethynyl)benzamide], for which the remaining binding at 1 µM turned out to be 66% in test [1]; 100% in test [2]; 95% in test [3]; 100% in test [4]; 82% in test [5].

For the compound `Cc1ccc(NC(=O)C2(C(=O)Nc3ccc(F)cc3)CC2)cc1C#Cc1cnc2c(Nc3cnn(C(C)C)c3)cccn12` [Example 78], the remaining binding at 1 µM worked out at 100% in test [1]; 92% in test [2]; 93% in test [3]; 100% in test [4]; 79% in test [5].
